From patent US8088806B2 (Achillion Pharmaceuticals, Inc., priority 2005, dated 2012)
pEC50: −log10 of the molar value.

System: HCV replicon
Experiment: Replicon based assay of HCV replication inhibition (NPT ELISA)
Type: cell-based, Hepatitis C virus
Conditions: Hepatitis C virus, replicon based assay of HCV replication inhibition; Table II; read-out: Activity
Method in brief: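 Huh-7 cells carrying a bicistronic HCV replicon (neo, EMCV-IRES-driven NS3–NS5B) treated overnight after seeding with usually 6 concentrations, 10 to 0.03 micromolar, for three days at 37° C without G418. Replication read as NPT level by captured ELISA; matched-DMSO wells and interferon alpha as controls.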

`CCCCCOc1ccc(Nc2nc(-c3csc(-c4cccnc4)n3)cs2)cc1C(F)(F)F` [compound 298, N-(4-(pentyloxy)-3-(trifluoromethyl)phenyl)-4-(2-(pyridin-3-yl)thiazol-4-yl)thiazol-2-amine] and `CCCCCOc1ccc(Nc2nc(-c3ccc(C(=O)NC4CC4)nc3)cs2)cc1C(F)(F)F` [compound 301, N-cyclopropyl-5-(2-(4-(pentyloxy)-3-(trifluoromethyl)phenylamino)thiazolo-4-yl)picolinamide] cannot be ordered by pEC50: over 6.00 for the first, over 6.00 for the second.

`COc1ccc(C2CCCCC2)cc1Nc1nc(-c2cccnc2)cs1` [compound 299, N-(5-cyclohexyl-2-methoxyphenyl)-4-(pyridin-3-yl)thiazol-2-amine] and `COc1ccc(Oc2ccccc2)cc1Nc1nc(-c2cccnc2)cs1` [compound 300, N-(2-methoxy-5-phenoxyphenyl)-4-(pyridin-3-yl)thiazol-2-amine] fall in the same range of pEC50: 5.00 to 6.00 for the first, 5.00 to 6.00 for the second.

First: CCCCCCCCOc1ccc(Nc2nc(-c3ccc(C(=O)O)cc3)cs2)cc1 [compound 303, 4-(2-(4-(octyloxy)phenylamino)thia-zol-4-yl)benzoic acid]
Second: CCCCCCCCOc1ccc(Nc2nc(-c3ccc(F)cc3)cs2)cc1 [compound 328, 4-(4-fluorophenyl)-N-(4-(octyloxy)phenyl)thiazol-2-amine]
The pEC50 of the first is lower: 5.00 to 6.00 for the first, over 6.00 for the second.

`CCCCCOc1ccc(Nc2nc(CN3CCC(C(C)(C)N)C3)cs2)cc1C(F)(F)F` (stereo not drawn) [compound 304, 4-((3-(2-aminopropan-2-yl)pyrrolidin-1-yl)methyl)-N-(4-(pentyloxy)-3-(trifluoromethyl)phenyl)thia-zol-2-amine] and `CCCCCOc1ccc(Nc2nc(CN3CCC(C(C)(C)N)C3)cs2)cc1F` (stereo not drawn) [compound 305, 4-((3-(2-aminopropan-2-yl)pyrrolidin-1-yl)methyl)-N-(3-fluoro-4-(pentyloxy)phenyl)thiazol-2-amine] fall in the same range of pEC50: 5.00 to 6.00 for the first, 5.00 to 6.00 for the second.

First: CCCCCCCCOc1ccc(Nc2nc(-c3csc(N)n3)cs2)cc1 [compound 306, 4-(2-aminothiazol-4-yl)-N-(4-(octyloxy)phenyl)thiazol-2-amine]
Second: CCCCCCCCOc1ccc(Nc2nc(-c3csc(-c4ccccc4)n3)cs2)cc1 [compound 332, N-(4-(octyloxy)phenyl)-4-(2-phenylthiazol-4-yl)thiazol-2-amine]
The pEC50 of the first is higher: over 6.00 for the first, 5.00 to 6.00 for the second. The first is the more potent here.

`CCCCCCCCOc1ccc(Nc2nc(-c3cn4cccnc4n3)cs2)cc1` [compound 307, 4-(imidazo[1,2-a]pyrimidin-2-yl)-N-(4-(octyloxy)phenyl)thiazol-2-amine] and `CCCCCCCCOc1ccc(Nc2nc(-c3ccccc3)cs2)cc1` [compound 327, N-(4-(octyloxy)phenyl)-4-phenylthiazol-2-amine] cannot be ordered by pEC50: over 6.00 for the first, over 6.00 for the second.

`CCCCCCCCOc1ccc(Nc2nc(CN3CCN(C(=O)OC(C)(C)C)CC3)cs2)cc1` [compound 308, tert-butyl 4-((2-(4-(octyloxy)phenylamino)thia-zol-4-yl)methyl)piperazine-1-carboxylate] and `CCCCCCCCOc1ccc(Nc2nc(CN3CCC(N(C)C(=O)OC(C)(C)C)C3)cs2)cc1` (stereo not drawn) [compound 309, tert-butyl methyl(1-((2-(4-(octyloxy)phenylamino)thia-zol-4-yl)methyl)pyrrolidin-3-yl)carbamate] fall in the same range of pEC50: 5.00 to 6.00 for the first, 5.00 to 6.00 for the second.

`CCCCCCCCOc1ccc(Nc2nc(-c3ccc(OC)cc3)cs2)cc1` [compound 310, 4-(4-methoxyphenyl)-N-(4-(octyloxy)phenyl)thiazol-2-amine] and `CCCCCCCCOc1ccc(Nc2nc(-c3ccc(F)c(F)c3)cs2)cc1` [compound 312, 4-(3,4-difluorophenyl)-N-(4-(octyloxy)phenyl)thiazol-2-amine] cannot be ordered by pEC50: over 6.00 for the first, over 6.00 for the second.

Going from `CCCCCCCCOc1ccc(Nc2nc(-c3ccc(OCC(=O)O)cc3)c(C)s2)cc1` [compound 311] to `CCOC(=O)c1ccc(Nc2nc(-c3ccc(OCC(=O)O)cc3)c(C)s2)cc1` [compound 337, 2-(4-(2-(4-(ethoxycarbonyl)phenylamino)-5-methylthiazol-4-yl)phenoxy)acetic acid], the pEC50 falls from over 6.00 to under 5.00. The first is the more potent here.

`CCCCCCCCOc1ccc(Nc2nc(CN3CCN(Cc4ccccn4)CC3)cs2)cc1` [compound 313] and `CCCCCCCCOc1ccc(Nc2nc(CN3CCOCC3)cs2)cc1` [compound 316, 4-(morpholinomethyl)-N-(4-(octyloxy)phenyl)thiazol-2-amine] fall in the same range of pEC50: 5.00 to 6.00 for the first, 5.00 to 6.00 for the second.

Compared with `CCCCCCCCOc1ccc(Nc2nc(CN3CCN(C4CCCCCC4)CC3)cs2)cc1` [compound 314, 4-((4-cycloheptylpiperazin-1-yl)methyl)-N-(4-(octyloxy)phenyl)thiazol-2-amine], `CCCCCCCCOc1ccc(Nc2nc(CN3CCC(O)CC3)cs2)cc1` [compound 321, 1-((2-(4-(octyloxy)phenylamino)thia-zol-4-yl)methyl)piperidin-4-ol] is lower in pEC50: over 6.00 for the first, 5.00 to 6.00 for the second. The first is the more potent here.

`CCCCCCCCOc1ccc(Nc2nc(CN3CCC(C(N)=O)CC3)cs2)cc1` [compound 315, 1-((2-(4-(octyloxy)phenylamino)thia-zol-4-yl)methyl)piperidine-4-carboxammide] and `CCCCCCCCOc1ccc(Nc2nc(CN3CCC(C(=O)OCC)CC3)cs2)cc1` [compound 319, ethyl 1-((2-(4-(octyloxy)phenylamino)thia-zol-4-yl)methyl)piperidine-4-carboxylate] fall in the same range of pEC50: 5.00 to 6.00 for the first, 5.00 to 6.00 for the second.

`CCCCCCCCOc1ccc(Nc2nc(CN3CCC(N(C)C)C3)cs2)cc1` (stereo not drawn) [compound 317, 4-((3-(dimethylamino)pyrrolidin-1-yl)methyl)-N-(4-(octyloxy)phenyl)thiazol-2-amine] and `CCCCCCCCOc1ccc(Nc2nc(CN3CCC(O)C3)cs2)cc1` (stereo not drawn) [compound 318, 1-((2-(4-(octyloxy)phenylamino)thia-zol-4-yl)methyl)pyrrolidin-3-ol] cannot be ordered by pEC50: over 6.00 for the first, over 6.00 for the second.

First: CCCCCCCCOc1ccc(Nc2nc(CN3C[C@H](O)CC3C(=O)OC)cs2)cc1 (stereo partly drawn) [compound 320, (4R)-methyl 4-hydroxy-1-((2-(4-(octyloxy)pheenylamino)thia-zol-4-yl)methyl)pyrrolidine-2-carboxylate]
Second: CCCCCCCCOc1ccc(Nc2nc(CN3CCCC(C(=O)O)C3)cs2)cc1 (stereo not drawn) [compound 323, 1-((2-(4-(octyloxy)phenylamino)thia-zol-4-yl)methyl)piperidine-3-carboxylic acid]
The pEC50 of the first is higher: over 6.00 for the first, 5.00 to 6.00 for the second.

`CCCCCCCCOc1ccc(Nc2nc(CN3CCC(CO)CC3)cs2)cc1` [compound 322, (1-((2-(4-(octyloxy)phenylamino)thia-zol-4-yl)methyl)piperidin-4-yl)methanol] and `CCCCCCCCOc1ccc(Nc2nc(CN3CCC(C)CC3)cs2)cc1` [compound 324, 4-((4-methylpiperidin-1-yl)methyl)-N-(4-(octyloxy)phenyl)thiazol-2-amine] fall in the same range of pEC50: 5.00 to 6.00 for the first, 5.00 to 6.00 for the second.

`CCCCCCCCOc1ccc(Nc2nc(CN3CCCC(C)C3)cs2)cc1` (stereo not drawn) [compound 325, 4-((3-methylpiperidin-1-yl)methyl)-N-(4-(octyloxy)phenyl)thiazol-2-amine] and `CCCCCCCCOc1ccc(Nc2nc(CN3C(C)CCCC3C)cs2)cc1` (stereo not drawn) [compound 326, 4-((2,6-dimethylpiperidin-1-yl)methyl)-N-(4-(octyloxy)phenyl)thiazol-2-amine] fall in the same range of pEC50: 5.00 to 6.00 for the first, 5.00 to 6.00 for the second.

`CCCCCCCCOc1ccc(Nc2nc(-c3ccc(Cl)c(Cl)c3)cs2)cc1` [compound 329, 4-(3,4-ddichlorophenyl)-N-(4-(octyloxy)phenyl)thiazol-2-amine] and `CCCCCCCCOc1ccc(Nc2nc(-c3ccc(F)cc3F)cs2)cc1` [compound 330, 4-(2,4-difluorophenyl)-N-(4-(octyloxy)phenyl)thiazol-2-amine] fall in the same range of pEC50: 5.00 to 6.00 for the first, 5.00 to 6.00 for the second.

First: CCCCCCCCOc1ccc(Nc2nc(C3=NC(=O)NC3)cs2)cc1 [compound 331, 4-(2-(4-(octyloxy)phenylamino)thia-zol-4-yl)-1H-imidazol-2(5H)-one]
Second: Cc1sc(Nc2cccc(C(F)(F)F)c2)nc1-c1ccc(OCC(=O)O)cc1 [compound 338, 2-(4-(5-methyl-2-(3-(trifluoromthyl)phenylamino)thiazol-4-yl)phenoxy)acetic acid]
The pEC50 of the first is higher: 5.00 to 6.00 for the first, under 5.00 for the second.

`COc1ccc(-c2nc(Nc3cccc(C(F)(F)F)c3)sc2-c2ccc(OC)cc2)cc1` [compound 333, 4,5-bis(4-methoxyphenyl)-N-(3-(trifluoromethyl)phenyl)thia-zol-2-amine] and `CCOC(=O)c1ccc(Nc2nc(-c3ccc(OC)cc3)c(-c3ccc(OC)cc3)s2)cc1` [compound 334, ethyl 4-(4,5-bis(4-methoxyphenyl)thiazol-2-ylamino)benzoate] fall in the same range of pEC50: 5.00 to 6.00 for the first, 5.00 to 6.00 for the second.

First: COc1ccc(-c2nc(NC(=O)c3ccccc3)sc2-c2ccc(OC)cc2)cc1 [compound 335, N-(4,5-bis(4-methoxyphenyl)thiazol-2-yl)benzamide]
Second: COc1ccc(CNc2nc(-c3ccc(OC)cc3)c(-c3ccc(OC)cc3)s2)cc1 [compound 336, N-(4-methoxybenzyl)-4,5-bis(4-methoxypheenyl)thiazol-2-amine]
The pEC50 of the first is higher: 5.00 to 6.00 for the first, under 5.00 for the second. The first is the more potent here.

`Cc1sc(NC(=O)c2ccccc2)nc1-c1ccc(OCC(=O)O)cc1` [compound 340, 2-(4-(2-benzamido-5-methylthiazol-4-yl)phenoxy)acetic acid] and `COc1ccc(CNc2nc(-c3ccc(OCC(=O)O)cc3)c(C)s2)cc1` [compound 341, 2-(4-(2-(4-methoxybenzylamino)-5-methylthiazol-4-yl)phenoxy)acetic acid] cannot be ordered by pEC50: under 5.00 for the first, under 5.00 for the second.

`CCOC(=O)c1ccc(Nc2nc(-c3ccc(CC(=O)O)cc3)c(C)s2)cc1` [compound 342, 2-(4-(2-(4-(ethoxycarbonyl)phenylamino)-5-methylthiazol-4-yl)phenyl)acetic acid] and `Cc1sc(Nc2cccnc2)nc1-c1ccc(CC(=O)O)cc1` [compound 344, 2-(4-(5-methyl-2-(pyridin-3-ylamino)thiazol-4-yl)phenyl)acetic acid] cannot be ordered by pEC50: under 5.00 for the first, under 5.00 for the second.

`Cc1sc(Nc2cccc(C(F)(F)F)c2)nc1-c1ccc(CC(=O)O)cc1` [compound 343, 2-(4-(5-methyl-2-(3-(trifluoromethyl)phenylamino)thiazol-4-yl)phenyl)acetic acid] gave a pEC50 of under 5.00.
